Measurements as given in patent publication EP3733277B1, “PATTERNED SUBSTRATE HAVING HYDROPHILIC AND HYDROPHOBIC AREAS” (Karlsruher Institut für Technologie (KIT), priority 2019, dated 2020).

System: Jurkat cells
Assay: Dose-response of doxorubicin on Jurkat cells cultured on droplet microarrays (DMA) with different surfaces or in microtiter plates; viability by Calcein AM / Propidium Iodide staining
Format: cell-based
Conditions: Homo sapiens
Description: Jurkat cells were treated with anti-cancer drug doxorubicin on DMAs containing different surfaces and coatings ((1) non-polymer surface with gelatine coating, (2) non-polymer surface without coating, (3) polymer surface with gelatine coating, which is necessary for culturing of cells on polymer, but not on non-polymer surface). Cells were cultured in 100 nL droplets volume and 100 cells per droplet on 1 mm square hydrophilic spots. Cells were incubated with drug for 24 hours. Afterwards cells were stained with Calcein AM (stains live cells) and Propidium Iodide (stains dead cells) to estimate viability of cells. DMAs were imaged using Olympus IX microscope. Image analysis was performed in Imaged software.
IC50 values were calculated in Origin software by fitting the dose-response curves shown in (a).

IC50 (24 h, Surface: Non-polymer DMA (without coating), 100 nL droplets, 100 cells per droplet, 24 hours): 0.19 µM
IC50 (24 h, Surface: Non-polymer DMA / gelatin, 100 nL droplets, 100 cells per droplet, 24 hours): 35.2 µM
IC50 (24 h, Surface: Polymer DMA / gelatin (HEMA-EDMA polymer), 100 nL droplets, 100 cells per droplet, 24 hours): 203 µM
IC50 (Surface: Microtiter plate): 0.2 µM
SMILES: COc1cccc2c1C(=O)c1c(O)c3c(c(O)c1C2=O)C[C@@](O)(C(=O)CO)C[C@@H]3O[C@H]1C[C@H](N)[C@H](O)[C@H](C)O1 [doxorubicin]
